The target in the experiment is human adenosine A2b receptor (Homo sapiens (Human), UniProt P29275). Description: Cellular in vitro reporter gene test for A2b receptor activity (CHO-K1, CRE-luciferase, NECA stimulation). The conditions noted are these: recombinant CHO-K1 cell line, CRE-luciferase reporter, antagonism of EC50 concentration of NECA; in some cases means of several determinations, rounded to two significant figures; read-out: A2b receptor IC50. The experiment is classed as cell-based. A digest of the protocol: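 CHO-K1 cells with CRE-driven luciferase; antagonists co-incubated with NECA at its EC50, determined in a pre-experiment on each test day. Luciferase read by luminescence 3 h after NECA addition.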
Chain of human adenosine A2b receptor (P29275 whole entry): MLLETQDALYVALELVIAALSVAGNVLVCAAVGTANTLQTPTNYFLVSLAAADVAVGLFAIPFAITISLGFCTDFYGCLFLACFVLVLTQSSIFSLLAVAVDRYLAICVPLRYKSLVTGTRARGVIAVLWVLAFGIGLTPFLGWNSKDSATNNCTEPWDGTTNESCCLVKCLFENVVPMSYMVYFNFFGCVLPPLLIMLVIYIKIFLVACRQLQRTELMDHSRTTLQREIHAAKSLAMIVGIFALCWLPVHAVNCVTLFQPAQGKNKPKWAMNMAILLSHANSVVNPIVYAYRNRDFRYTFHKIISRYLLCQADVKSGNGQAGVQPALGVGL
`CCn1c(=O)c2c(C)c(CN3CCNC3=S)sc2n(CC(F)F)c1=O` [Example 137, 1-(2,2-Difluoroethyl)-3-ethyl-5-methyl-6-[(2-thioxoimidazolidin-1-yl)methyl]thieno[2,3-d]pyrimidine-2,4(1H,3H)-dione]: the concentration for half-maximal inhibition (IC50) stood at 10 nM.

Take `Cc1c(Cn2nc[nH]c2=O)sc2c1c(=O)n(CC(F)(F)F)c(=O)n2CC1CCCO1` (single isomer, unassigned) [Example 435, 5-Methyl-6-[(5-oxo-4,5-dihydro-1H-1,2,4-triazol-1-yl)methyl]-1-(tetrahydrofuran-2-ylmethyl)-3-(2,2,2-trifluoroethyl)thieno[2,3-d]pyrimidine-2,4(1H,3H)-dione]: the IC50 was 43 nM.

With `COCCn1c(=O)n(CCC(F)=C(F)F)c(=O)c2c(C)c(CN3CCNC3=O)sc21` [Example 321, 1-(2-Methoxyethyl)-5-methyl-6-[(2-oxoimidazolidin-1-yl)methyl]-3-(3,4,4-trifluorobut-3-en-1-yl)thieno[2,3-d]pyrimidine-2,4(1H,3H)-dione], the IC50 was determined as 1.6 nM. As for `COCCn1c(=O)c2c(C)c(CN3CCNC3=O)sc2n(CCOC)c1=O` [Example 231, 1,3-Bis(2-methoxyethyl)-5-methyl-6-[(2-oxoimidazolidin-1-yl)methyl]thieno[2,3-d]pyrimidine-2,4(1H,3H)-dione], the IC50 is 21 nM. As to `CCn1c(=O)c2c(C)c(CN3CCNC3=O)sc2n(CC2CCCCO2)c1=O` (single isomer, unassigned) [Example 179, 3-Ethyl-5-methyl-6-[(2-oxoimidazolidin-1-yl)methyl]-1-(tetrahydro-2H-pyran-2-ylmethyl)thieno[2,3-d]pyrimidine-2,4(1H,3H)-dione], the IC50 stood at 200 nM. For the compound `CCn1c(=O)c2c(C)c(CN3CC[C@@H](O)C3=O)sc2n(CCC(F)(F)F)c1=O` [Example 126, 3-Ethyl-6-{[(3R)-3-hydroxy-2-oxopyrrolidin-1-yl]methyl}-5-methyl-1-(3,3,3-trifluoropropyl)thieno[2,3-d]pyrimidine-2,4(1H,3H)-dione], the concentration for half-maximal inhibition (IC50) is 3.9 nM. On to `CCn1c(=O)c2c(C)c(CN3CCC3=O)sc2n(CCC(F)(F)F)c1=O` [Example 2, 3-Ethyl-5-methyl-6-[(2-oxoazetidin-1-yl)methyl]-1-(3,3,3-trifluoropropyl)thieno[2,3-d]pyrimidine-2,4(1H,3H)-dione], for which the IC50 was 11 nM. Turning to `CCn1c(=O)c2c(C)c(CN3CCNC3=O)sc2n(CC(C)OC)c1=O` (single isomer, unassigned; enantiomer 2) [Example 64, 3-Ethyl-1-(2-methoxypropyl)-5-methyl-6-[(2-oxoimidazolidin-1-yl)methyl]thieno[2,3-d]pyrimidine-2,4(1H,3H)-dione (Enantiomer 2)], the concentration for half-maximal inhibition (IC50) came out at 86 nM. As to `Cc1c(CN2CCNC(=O)C2=O)sc2c1c(=O)n(CC(C)C)c(=O)n2CCCF` [Example 121, 6-[(2,3-Dioxopiperazin-1-yl)methyl]-1-(3-fluoropropyl)-3-isobutyl-5-methylthieno[2,3-d]pyrimidine-2,4(1H,3H)-dione], the IC50 stood at 20 nM. As to `COCCn1c(=O)n(C(C)C(F)(F)F)c(=O)c2c(C)c(CN3CCNC3=NC#N)sc21` (racemic) [Example 452, [1-{[1-(2-Methoxyethyl)-5-methyl-2,4-dioxo-3-(1,1,1-trifluoropropan-2-yl)-1,2,3,4-tetrahydrothieno[2,3-d]pyrimidin-6-yl]methyl}imidazolidin-2-ylidene]cyanamide], the IC50 is 14 nM.

Regarding `COC(=O)N=C1NCCN1Cc1sc2c(c1C)c(=O)n(CC(F)(F)F)c(=O)n2CC1CCCO1` (single isomer, unassigned) [Example 469, Methyl [1-{[5-methyl-2,4-dioxo-1-(tetrahydrofuran-2-ylmethyl)-3-(2,2,2-trifluoroethyl)-1,2,3,4-tetrahydrothieno[2,3-d]pyrimidin-6-yl]methyl}imidazolidin-2-ylidene]carbamate], the IC50 worked out at 8.8 nM.

On to `COC(C)Cn1c(=O)c2c(C)c(CN3CCNC(=O)C3=O)sc2n(CCC(F)(F)F)c1=O` (racemic) [Example 493, 6-[(2,3-Dioxopiperazin-1-yl)methyl]-3-(2-methoxypropyl)-5-methyl-1-(3,3,3-trifluoropropyl)thieno[2,3-d]pyrimidine-2,4(1H,3H)-dione], for which the IC50 was 11 nM.

On to `COCCn1c(=O)n(CC(F)(F)F)c(=O)c2c(C)c(CN3CCNC3=NC#N)sc21` [Example 268, [1-{[1-(2-Methoxyethyl)-5-methyl-2,4-dioxo-3-(2,2,2-trifluoroethyl)-1,2,3,4-tetrahydrothieno[2,3-d]pyrimidin-6-yl]methyl}imidazolidin-2-ylidene]cyanamide], for which the IC50 is 12 nM.

As for `Cc1c(CN2CCNC2=O)sc2c1c(=O)n(CC(F)(F)F)c(=O)n2CC1CCCO1` (racemic) [Example 209, 5-Methyl-6-[(2-oxoimidazolidin-1-yl)methyl]-1-(tetrahydrofuran-2-ylmethyl)-3-(2,2,2-trifluoroethyl)thieno[2,3-d]pyrimidine-2,4(1H,3H)-dione], the IC50 stood at 12 nM. For `Cc1c(CN2CCNC2=O)sc2c1c(=O)n(C(C)C)c(=O)n2CC1CCO1` (single isomer, unassigned) [Example 185, 3-Isopropyl-5-methyl-1-(oxetan-2-ylmethyl)-6-[(2-oxoimidazolidin-1-yl)methyl]thieno[2,3-d]pyrimidine-2,4(1H,3H)-dione] the value was 60 nM; for `Cc1c(CN2CCNC2=S)sc2c1c(=O)n(CC(C)C)c(=O)n2CC1CCO1` (racemic) [Example 146, 3-Isobutyl-5-methyl-1-(oxetan-2-ylmethyl)-6-[(2-thioxoimidazolidin-1-yl)methyl]thieno[2,3-d]pyrimidine-2,4(1H,3H)-dione], 11 nM; for `COC(C)(C)Cn1c(=O)c2c(C)c(CN3CCN(C)C3=O)sc2n(CCC(F)(F)F)c1=O` [Example 338, 3-(2-Methoxy-2-methylpropyl)-5-methyl-6-[(3-methyl-2-oxoimidazolidin-1-yl)methyl]-1-(3,3,3-trifluoropropyl)thieno[2,3-d]pyrimidine-2,4(1H,3H)-dione], 120 nM. In the case of `COC(=O)N=C1NCCN1Cc1sc2c(c1C)c(=O)n(CC(C)OC)c(=O)n2CCC(F)(F)F` (single isomer, unassigned) [Example 473, Methyl [1-{[3-(2-methoxypropyl)-5-methyl-2,4-dioxo-1-(3,3,3-trifluoropropyl)-1,2,3,4-tetrahydrothieno[2,3-d]pyrimidin-6-yl]methyl}imidazolidin-2-ylidene]carbamate], the IC50 was 3.4 nM. With `COC(=O)N=C1NCCN1Cc1sc2c(c1C)c(=O)n(C(C)C)c(=O)n2CC1CCO1` (single isomer, unassigned) [Example 457, Methyl [1-{[3-isopropyl-5-methyl-1-(oxetan-2-ylmethyl)-2,4-dioxo-1,2,3,4-tetrahydrothieno[2,3-d]pyrimidin-6-yl]methyl}imidazolidin-2-ylidene]carbamate], the IC50 stood at 7.1 nM. For `Cc1c(CN2CCNC2=O)sc2c1c(=O)n(CC(F)F)c(=O)n2C` [Example 223, 3-(2,2-Difluoroethyl)-1,5-dimethyl-6-[(2-oxoimidazolidin-1-yl)methyl]thieno[2,3-d]pyrimidine-2,4(1H,3H)-dione], the IC50 was determined as 14 nM. For `Cc1c(CN2CCNC(=O)C2=O)sc2c1c(=O)n(CC(F)(F)F)c(=O)n2CC1CCO1` (racemic) [Example 123, 6-[(2,3-Dioxopiperazin-1-yl)methyl]-5-methyl-1-(oxetan-2-ylmethyl)-3-(2,2,2-trifluoroethyl)thieno[2,3-d]pyrimidine-2,4(1H,3H)-dione] the value was 53 nM. Consider `COCCn1c(=O)c2c(C)c(Cn3cc[nH]c3=O)sc2n(CCC(F)(F)F)c1=O` [Example 344, 3-(2-Methoxyethyl)-5-methyl-6-[(2-oxo-2,3-dihydro-1H-imidazol-1-yl)methyl]-1-(3,3,3-trifluoropropyl)thieno[2,3-d]pyrimidine-2,4(1H,3H)-dione], for which the IC50 came to 8.5 nM. In the case of `COCCn1c(=O)n(CC(F)(F)F)c(=O)c2c(C)c(Cn3cc[nH]c3=O)sc21` [Example 340, 1-(2-Methoxyethyl)-5-methyl-6-[(2-oxo-2,3-dihydro-1H-imidazol-1-yl)methyl]-3-(2,2,2-trifluoroethyl)thieno[2,3-d]pyrimidine-2,4(1H,3H)-dione], the IC50 is 18 nM. The result for `Cc1c(Cn2cc[nH]c2=O)sc2c1c(=O)n(CC(F)(F)F)c(=O)n2CC1CCCO1` (single isomer, unassigned) [Example 342, 5-Methyl-6-[(2-oxo-2,3-dihydro-1H-imidazol-1-yl)methyl]-1-(tetrahydrofuran-2-ylmethyl)-3-(2,2,2-trifluoroethyl)thieno[2,3-d]pyrimidine-2,4(1H,3H)-dione] reads 13 nM; that for `COC(=O)N=C1NCCN1Cc1sc2c(c1C)c(=O)n(C(C)C)c(=O)n2CCC(F)(F)F` [Example 377, Methyl [1-{[3-isopropyl-5-methyl-2,4-dioxo-1-(3,3,3-trifluoropropyl)-1,2,3,4-tetrahydrothieno[2,3-d]pyrimidin-6-yl]methyl}imidazolidin-2-ylidene]carbamate], 3.4 nM; that for `CCOCCn1c(=O)n(CCOC)c(=O)c2c(C)c(CN3CCNC3=S)sc21` [Example 169, 1-(2-Ethoxyethyl)-3-(2-methoxyethyl)-5-methyl-6-[(2-thioxoimidazolidin-1-yl)methyl]thieno[2,3-d]pyrimidine-2,4(1H,3H)-dione], 36 nM. For `COCCn1c(=O)c2c(C)c(CN3CCNC3=NC#N)sc2n(CC2CCCO2)c1=O` (single isomer, unassigned) [Example 369, [1-{[3-(2-Methoxyethyl)-5-methyl-2,4-dioxo-1-(tetrahydrofuran-2-ylmethyl)-1,2,3,4-tetrahydrothieno[2,3-d]pyrimidin-6-yl]methyl}imidazolidin-2-ylidene]cyanamide] the value was 33 nM.

Values taken from US10428083B2, “Heterocyclylmethyl-thienouracile as antagonists of the adenosine-A2B-receptor” (BAYER PHARMA AKTIENGESELLSCHAFT, priority 2015, dated 2019).
